Holding throughout (type): functional
The test system of one test is SN12C. Put plainly: Cytotoxicity against human SN12C cells assessed as cell growth at 0.5 uM after 48 hrs by SRB assay. Particulars: read-out: Activity. Background: Sulforhodamine B stains cellular protein and so reports cell mass.
Test [1] in a line: Cytotoxicity against human OVCAR4 cells assessed as cell growth at 50 uM after 48 hrs by SRB assay. The conditions noted are these: OVCAR-4, 48 h, read-out: Activity.
Test [2] relates to MDA-MB-435. Put plainly: Cytotoxicity against human MDA-MB-435 cells assessed as cell growth at 5 uM after 48 hrs by SRB assay. Particulars: MDA-MB-435, 48 h, read-out: Activity.
Test [3] in a line: Cytotoxicity against human UACC62 cells assessed as cell growth at 50 uM after 48 hrs by SRB assay. Particulars: UACC-62, 48 h, read-out: Activity.
Test [4] can be described thus: Cytotoxicity against human SNB75 cells assessed as cell growth at 5 nM after 48 hrs by SRB assay. The conditions noted are these: SNB-75, 48 h, read-out: Activity.
A further test concerns KM12. Put plainly: Cytotoxicity against human KM12 cells assessed as cell growth at 5 uM after 48 hrs by SRB assay. Particulars: KM12, 48 h, read-out: Activity.
Test [5] in a line: Cytotoxicity against human SKOV3 cells assessed as cell growth at 5 nM after 48 hrs by SRB assay. The conditions noted are these: SK-OV-3, 48 h, read-out: Activity.
The test system of a further test is CCRF-CEM. Put plainly: Cytotoxicity against human CCRF-CEM cells assessed as cell growth at 50 uM after 48 hrs by SRB assay. The conditions noted are these: read-out: Activity.
The next test has as its system NCI-H460. In words: Cytotoxicity against human NCI-H460 cells assessed as cell growth at 5 nM after 48 hrs by SRB assay. Particulars: NCI-H460, 48 h, read-out: Activity.
Test [6] is described as follows: Cytotoxicity against human RXF393 cells assessed as cell growth at 50 nM after 48 hrs by SRB assay. Particulars: RXF 393, 48 h, read-out: Activity.
The subject of another test is NCI-H522. In words: Cytotoxicity against human NCI-H522 cells assessed as cell growth at 50 uM after 48 hrs by SRB assay. The conditions noted are these: NCI-H522, 48 h, read-out: Activity.
Test [7] has as its system MDA-MB-435. Put plainly: Cytotoxicity against human MDA-MB-435 cells assessed as cell growth at 50 nM after 48 hrs by SRB assay. Particulars: MDA-MB-435, 48 h, read-out: Activity.
Test [8] can be described thus: Cytotoxicity against human TK10 cells assessed as cell growth at 5 uM after 48 hrs by SRB assay. Particulars: TK-10, 48 h, read-out: Activity.
Test [9] in a line: Cytotoxicity against human OVCAR8 cells assessed as cell growth at 50 nM after 48 hrs by SRB assay. Particulars: OVCAR-8, 48 h, read-out: Activity.
For another test, the system named is SK-MEL-5. In words: Cytotoxicity against human SK-MEL-5 cells assessed as cell growth at 50 nM after 48 hrs by SRB assay. The conditions noted are these: SK-MEL-5, 48 h, read-out: Activity.
For a further test, the system named is K562. Put plainly: Cytotoxicity against human K562 cells assessed as cell growth at 50 uM after 48 hrs by SRB assay. Particulars: K562, 48 h, read-out: Activity.
Test [10] in a line: Cytotoxicity against human SKOV3 cells assessed as cell growth at 0.5 uM after 48 hrs by SRB assay. Particulars: SK-OV-3, 48 h, read-out: Activity.
The next test relates to HT-29. In words: Cytotoxicity against human HT-29 cells assessed as cell growth at 0.5 uM after 48 hrs by SRB assay. The conditions noted are these: HT-29, 48 h, read-out: Activity.
A short description of test [11]: Cytotoxicity against human RXF393 cells assessed as cell growth at 50 uM after 48 hrs by SRB assay. Particulars: RXF 393, 48 h, read-out: Activity.
The nature of test [12]: Cytotoxicity against human SF268 cells assessed as cell growth at 50 nM after 48 hrs by SRB assay. Particulars: SF-268, 48 h, read-out: Activity.
For the next test, the system named is A549. In words: Cytotoxicity against human A549 cells assessed as cell growth at 10^-8 M after 48 hrs by SRB assay. The conditions noted are these: A549, 48 h, read-out: Activity.
Test [13] is described as follows: Cytotoxicity against human COLO205 cells assessed as cell growth at 10^-7 M after 48 hrs by SRB assay. Particulars: COLO 205, 48 h, read-out: Activity.
Test [14] can be described thus: Cytotoxicity against human OVCAR3 cells assessed as cell growth at 10^-4 M after 48 hrs by SRB assay. Particulars: OVCAR-3, 48 h, read-out: Activity.
Test [15] deals with A498. Put plainly: Cytotoxicity against human A498 cells assessed as cell growth at 10^-7 M after 48 hrs by SRB assay. The conditions noted are these: A498, 48 h, read-out: Activity.
Test [16] is described as follows: Cytotoxicity against human Hs 578T cells assessed as cell growth at 10^-4 M after 48 hrs by SRB assay. The conditions noted are these: read-out: Activity.
Test [17] in a line: Cytotoxicity against human UACC62 cells assessed as cell growth at 10^-8 M after 48 hrs by SRB assay. The conditions noted are these: UACC-62, 48 h, read-out: Activity.
Test [18] is described as follows: Cytotoxicity against human NCI-ADR-RES cells assessed as cell growth at 10^-4 M after 48 hrs by SRB assay. The conditions noted are these: read-out: Activity.
The nature of test [19]: Cytotoxicity against human RPMI8226 cells assessed as cell growth at 10^-5 M after 48 hrs by SRB assay. Particulars: RPMI-8226, 48 h, read-out: Activity.
Test [20] is described as follows: Cytotoxicity against human SKOV3 cells assessed as cell growth at 10^-6 M after 48 hrs by SRB assay. Particulars: SK-OV-3, 48 h, read-out: Activity.
Test [21] can be described thus: Cytotoxicity against human UACC257 cells assessed as cell growth at 10^-7 M after 48 hrs by SRB assay. The conditions noted are these: UACC-257, 48 h, read-out: Activity.
The test system of another test is NCI-H226. Put plainly: Cytotoxicity against human NCI-H226 cells assessed as cell growth at 10^-6 M after 48 hrs by SRB assay. The conditions noted are these: NCI-H226, 48 h, read-out: Activity.
The nature of test [22]: Cytotoxicity against human IGROV1 cells assessed as cell growth at 10^-4 M after 48 hrs by SRB assay. Particulars: IGROV-1, 48 h, read-out: Activity.
The nature of test [23]: Cytotoxicity against human OVCAR5 cells assessed as cell growth at 10^-8 M after 48 hrs by SRB assay. Particulars: OVCAR-5, 48 h, read-out: Activity.
The next test relates to NCI-H23. In words: Cytotoxicity against human NCI-H23 cells assessed as cell growth at 10^-5 M after 48 hrs by SRB assay. Particulars: NCI-H23, 48 h, read-out: Activity.
Test [24] can be described thus: Cytotoxicity against human OVCAR8 cells assessed as cell growth at 10^-7 M after 48 hrs by SRB assay. The conditions noted are these: OVCAR-8, 48 h, read-out: Activity.
The test system of another test is NCI-H322M. In words: Cytotoxicity against human NCI-H322M cells assessed as cell growth at 10^-8 M after 48 hrs by SRB assay. Particulars: read-out: Activity.
Test [25] is described as follows: Cytotoxicity against human SF539 cells assessed as cell growth at 10^-6 M after 48 hrs by SRB assay. Particulars: SF-539, 48 h, read-out: Activity.
Test [26] concerns A498. In words: Cytotoxicity against human A498 cells assessed as cell growth at 10^-5 M after 48 hrs by SRB assay. Particulars: A498, 48 h, read-out: Activity.
A short description of test [27]: Cytotoxicity against human LOXIMVI cells assessed as cell growth at 10^-5 M after 48 hrs by SRB assay. Particulars: LOX IMVI, read-out: Activity.
Test [28] is described as follows: Cytotoxicity against human RXF393 cells assessed as cell growth at 10^-8 M after 48 hrs by SRB assay. Particulars: RXF 393, 48 h, read-out: Activity.
The nature of test [29]: Cytotoxicity against human OVCAR8 cells assessed as cell growth at 10^-6 M after 48 hrs by SRB assay. Particulars: OVCAR-8, 48 h, read-out: Activity.

For the compound `CCCCCCCCCC(=O)Oc1ccc(/C(=C(/C)c2ccccc2)c2ccc(OCCN3CCCC3)cc2)cc1`, the results for the growth at 0.5 µM (in the test on SN12C; in test [10]; with HT-29) were 88%, 83% and 12%, respectively. In addition, the growth at 50 µM is -87% in [1]; -90% in test [3]; -47% in the test with CCRF-CEM; -74% in the test on NCI-H522; -70% in the test with K562; -89% in test [11]. Moreover, the figures for the growth at 5 µM (in the test with MDA-MB-435 [2]; with KM12; in test [8]) were 82%, 94% and 95%, respectively. For the same compound, the results for the growth at 0.005 µM (in test [4]; in test [5]; with NCI-H460) were 88%, 101% and 102%, respectively. The growth at 0.05 µM in test [6] stood at 100%; in the test on MDA-MB-435 [7], 92%; in test [9] it was 101%; in the test on SK-MEL-5 it was 102%; in test [12], 97%.
Turning to `C/C(=C(/c1ccc(O)cc1)c1ccc(OCCN2CCCC2)cc1)c1ccccc1`, the growth at 0.01 µM in the test with A549 stood at 99%; in [17] it was 99%; in test [23], 88%; with NCI-H322M it was 97%; in test [28], 96%. The growth at 0.1 µM in test [13] worked out at 96%; in the test on A498 [15] it was 60%; in test [21], 102%; in test [24] it was 105%. The growth at 100 µM in [14] is -100%; in [16] it was -43%; in test [18] it was -70%; in test [22] it was -54%. For the same compound, the growth at 10 µM was -19% in test [19], 29% with NCI-H23, -5% in the test on A498 [26] and -86% in test [27]. In addition, the growth at 1 µM in test [20] worked out at 89%; in the test with NCI-H226 it was 91%; in [25], 91%; in test [29], 98%.

The record behind these values is ChEMBL document CHEMBL3774317, “Design and synthesis of novel tamoxifen analogues that avoid CYP2D6 metabolism” (Eur J Med Chem, 2016).
